Where no end group is shown, it is not given here.

We go through 1 substance from paper PMC9002018, “The Antimicrobial Peptide MPX Can Kill Staphylococcus aureus, Reduce Biofilm Formation, and Effectively Treat Bacterial Skin Infections in Mice” (Frontiers in Veterinary Science, 2022).

One series deals with A. pleuropneumoniae. The settings on record: previous experiment of the same laboratory; cited from earlier work. An excerpt: S. aureus can cause a wide range of infections, which can lead to organ failure and death in severe cases. It is one of the most common pathogens in communities and hospitals worldwide. The emergence and rapid spread of methicillin-resistant S. aureus strains have produced great challenges for clinical treatment. According to reports, patients with methicillin-resistant S. aureus infection have an increased clinical risk, especially an increased risk of mortality ([18]). Therefore, we must strengthen the prevention of MDR S. aureus infection, find effective alternatives to antibiotics, and ide ...

Series [1] has as its system S. aureus. The series can be described thus: Propidium iodide uptake (fluorescence microscopy). In kind it is cell-based, Staphylococcus aureus. The settings on record: MPX 4×MIC for 0.5 h, compared with group without peptide. The protocol: S. aureus was centrifuged, washed, and resuspended in sterile PBS. MPX (4×MIC) was added to the bacterial solution. The bacteria were cultured with shaking at 37°C and then centrifuged and resuspended in PBS solution. The cells were incubated with propidium iodide (PI) stain for 10 min in the dark. The suspension was fixed on a clean glass slide and observed with a fluorescence microscope.

In series [2] the test system is S. aureus ATCC 25923. The series can be described thus: NPN uptake (membrane integrity). The settings on record: MPX 0.02 μM (1×MIC), NPN 10 μM, ex 350 nm / em 420 nm, 0–10 min; comparator ampicillin 50 μg/mL. It is filed as cell-based, Staphylococcus aureus. The protocol:
S. aureus ATCC 25923 was cultured overnight in a 96-well plate. An NPN solution was added to a final concentration of 10 μM. The solutions were mixed well and incubated for 20 min. MPX (1×MIC, 4×MIC) was added to the wells. Sterile water was used as the control, and ampicillin (Amp) ([…]/50 μg/mL) was used as the positive control. The excitation wavelength was 350 nm, the emission wavelength was 420 nm, and the fluorescence intensity was detected by a microplate reader ([13]).

In series [3] the test system is S. aureus. Description: Stability to salt ions, pH, temperature and repeated freezing and thawing, read by agar diffusion. In kind it is physicochemical, Staphylococcus aureus. The settings on record: n = 3. The protocol:
[…] Solutions with different pH values were prepared with HCl and NaOH, producing pH values of 4, 5, 6, 7, 8, 9, 10, and MPX was incubated in these solutions for 30 min. MPX solutions were also incubated at different temperatures for 30 min (0, 25, 50, 75, and 100°C). A 1 mg/mL MPX solution was repeatedly frozen and thawed 0, 2, 4, 6, 8, 10, and 12 times. Ten microlitres of each of the peptide solutions treated as described above was collected, and the changes in the antimicrobial activity of the AMPs were detected by the agar diffusion assay.

In a further series the test system is trypsin. The series can be described thus: Protease stability assay with trypsin, read by agar diffusion. In kind it is in vitro ADME. The settings on record: MPX 1.3 μM, 37°C, 30 min. As to the method:
(§1) An MPX protease stability assay was performed in the following manner. MPX (1.3 μM) was mixed with equal volumes of proteinase K and trypsin at different concentrations. After incubating at 37°C for 30 min, the samples were incubated in a boiling water bath for 5 min to stop the protease reaction. The protease stability of MPX was detected by the agar diffusion assay.
A general note: Agar diffusion results depend on both activity and mobility in agar.

Another series concerns the target proteinase K (Parengyodontium album, UniProt P06873). Description: Protease stability assay with proteinase K, read by agar diffusion. The settings on record: MPX 1.3 μM, 37°C, 30 min. In kind it is in vitro ADME. As to the method: as §1
Series [4] concerns S. aureus ATCC 25923. The series can be described thus: Agar diffusion test of antibacterial activity. In kind it is cell-based, Staphylococcus aureus. The settings on record: 1 mg/mL MPX, 20 μL per well, overnight at 37°C; sterile water control had no zone. As to the method:
The agar diffusion test was used to detect the antibacterial effect of MPX on S. aureus ATCC 25923. S. aureus ATCC 25923 was cultured overnight, and the supernatant was discarded by centrifugation. The bacteria were washed with sterile PBS, and resuspended in a smaller volume to concentrate the cells. Next, 50 μL of the bacterial solution was pipetted into 15 mL of agar and shaken gently to mix. The plate was poured, a puncher was used to make holes after the agar medium had solidified and 20 μL of 1 mg/mL MPX was added to the wells. Sterile water was used as a control. The plates were incubated overnight at 37°C and the results were observed.

Series [5] has as its system S. aureus ATCC 25923 biofilm. The series can be described thus: Biofilm observation by SEM and confocal laser microscopy (SYTO 9/PI). It is filed as cell-based, Staphylococcus aureus. The settings on record: MPX 4×MIC added to 24 h biofilm. The protocol:
S. aureus ATCC 25923 was cultivated as described above. After culturing in a 37°C incubator for 24 h, MPX (final concentration: 4×MIC) was added to the sample. […] S. aureus was washed 3 times with 0.85% NaCl to remove nucleic acids and other medium components. A LIVE/DEAD BacLight Bacterial Viability L-7012 Kit (Molecular Probes, Eugene, OR, USA), containing two component dyes (SYTO 9 and PI in a 1:1 mixture) in solution, was used prior to microscopy and quantitative assays according to the test instructions. A total of 3 μL of the dye mixture was added to each well, the wells were incubated at room temperature in the dark for 15 min, and the bacterial survival in the biofilm was observed by confocal laser microscopy.
A sterile slides were placed in 6-well cell culture plates and bacteria were allowed to grow naturally on the slides to form a biofilm. Overnight culture broth and fresh broth were added at a volume ratio of 1:100, and incubated at 37°C for 24 h. Different final concentrations of MPX (1×MIC, 4×MIC) were added, incubation was continued. Then, a 2.5% glutaraldehyde solution was added to each well, and the cells were fixed at room temperature for 30 min. The plate was rinsed 3 times with PBS for 10 min each time. Gradient dehydration was performed with increasing concentrations of an ethanol solution (30, 50, 70, 80, 90, 95, and 100%). […]

Series [6] relates to S. aureus ATCC 25923. Description: BCA protein assay of bacterial supernatant (protein leakage). It is filed as cell-based, Staphylococcus aureus. The settings on record: MPX (1×MIC, 4×MIC) for 5 min, BCA kit, P < 0.01, n = 3. As to the method: S. aureus was cultured overnight, washed and resuspended in sterile PBS. MPX (1×MIC, 4×MIC) was added to the bacterial solution. Sterile water was added as a control. A peptide-only group was a negative control. The mixture was allowed to stand for 5 min, and the supernatant was collected after centrifugation. The effect of MPX on the permeability of S. aureus ATCC 25923 for protein was analyzed according to the instructions of the BCA kit.

Series [7] deals with S. aureus ATCC 25923. The series can be described thus: DiSC3-5 assay for membrane potential. In kind it is cell-based, Staphylococcus aureus. The settings on record: MPX 1×MIC. As to the method: Overnight-cultured S. aureus ATCC 25923 was centrifuged and resuspended in sterile PBS. A DiSC3-5 solution was added to a final concentration of 1 μM. The cells were incubated in the dark for 20 min. MPX (1×MIC, 2×MIC and 4×MIC) was added. Sterile water was used as the control, and AMP ([…]/50 μg/mL) was used as the positive control. The excitation wavelength was 622 nm, the emission wavelength was 670 nm, and the fluorescence intensity was detected by a microplate reader.

Series [8] has as its system S. aureus ATCC 25923. Description: Time-killing curve (OD600 and plate counting). The settings on record: 37°C. It is filed as cell-based, Staphylococcus aureus. As to the method: S. aureus was cultivated, the OD600 of the bacterial solution was adjusted to approximately 1.0, and MPX (1×MIC, 4×MIC) was added. In addition, sterile water was used as a control. The samples were incubated with shaking at 37°C. The OD600 value of the bacterial solution was measured every 1 h, and plate counting was performed at the same time to obtain the antibacterial time-killing curve of MPX against S. aureus ATCC 25923 ([15]).

Series [9] concerns S. aureus ATCC 25923. The series can be described thus: Electron microscopy (SEM, TEM) of bacterial morphology. It is filed as cell-based, Staphylococcus aureus. As to the method:
A sterile slides were placed in 6-well cell culture plates and bacteria were allowed to grow naturally on the slides to form a biofilm. Overnight culture broth and fresh broth were added at a volume ratio of 1:100, and incubated at 37°C for 24 h. Different final concentrations of MPX (1×MIC, 4×MIC) were added, incubation was continued. Then, a 2.5% glutaraldehyde solution was added to each well, and the cells were fixed at room temperature for 30 min. The plate was rinsed 3 times with PBS for 10 min each time. Gradient dehydration was performed with increasing concentrations of an ethanol solution (30, 50, 70, 80, 90, 95, and 100%). After ion spray gold coating, biofilm formation was observed by scanning electron microscopy (SEM) ([17]).
Transmission electron microscopy (TEM) was used to detect the bacterial structure changes after MPX acted on S. aureus ATCC 25923. S. aureus was cultured overnight. MPX was added to different final concentrations. The cells were incubated with shaking at 37°C for 2 h, and then sodium phosphotungstate was used for negative staining. The effect of AMPs on S. aureus was observed. Centrifugation, fixation, dehydration, soaking, embedding and polymerization, sectioning and staining of the culture were performed. Finally, a transmission electron microscope was used to observe the results.

In series [10] the test system is S. aureus ATCC 25923 biofilm. Description: Crystal violet assay of biofilm formation. In kind it is cell-based, Staphylococcus aureus. The settings on record: MPX 0.5×MIC, 24 h at 37°C, p < 0.01, n = 3. The protocol:
An overnight culture of S. aureus was inoculated into a 96-well polystyrene microtiter plate at a ratio of 1%. MPX (0.25×MIC, 0.5×MIC and 1×MIC) was added to the wells. Sterile water was used as a control. The plates were incubated at 37°C for 24 h. The microplates were then washed 3 times with sterile PBS, and the cells were fixed with 70% methanol for 30 min. Then, the cells were stained with 1% Hucker crystal violet staining solution at room temperature for 5 min. The dyeing solution was aspirated, and the cells were rinsed with water until no color remained. Images were acquired after drying. Then, 100 μL of a 70% ethanol solution was added to each well to dissolve the residual dye, and a microplate reader was used to measure the absorbance at OD570 nm ([16]).

Chain of proteinase K (P06873 106-384, species assumed): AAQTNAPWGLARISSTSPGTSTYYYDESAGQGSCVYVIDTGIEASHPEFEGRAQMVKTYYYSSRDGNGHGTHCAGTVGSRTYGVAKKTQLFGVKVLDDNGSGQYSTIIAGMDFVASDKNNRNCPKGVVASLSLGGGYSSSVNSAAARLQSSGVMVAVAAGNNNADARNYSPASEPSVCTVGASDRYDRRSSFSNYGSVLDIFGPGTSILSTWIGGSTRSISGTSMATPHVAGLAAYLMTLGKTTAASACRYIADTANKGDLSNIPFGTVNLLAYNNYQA

As for INWKGIAAMAKKLL-NH2 [MPX], the “effect of Ca2+ and Mg2+ on killing effect of MPX on A. pleuropneumoniae” value with A. pleuropneumoniae is “significantly inhibit”. The “number of PI-stained bacteria” value with S. aureus [1] is listed as “significantly increased”. Besides, in the series on S. aureus ATCC 25923 [2], the “NPN fluorescence intensity (membrane integrity)” value was “significantly higher than that of the control group and the antibiotic AMP treatment group”. Also, the “effect of temperature on antibacterial activity of MPX (thermal stability)” value in the series with S. aureus [3] (0, 25, 50, 75 and 100°C for 30 min) is recorded as “basically no effect”. For the same substance, the “effect of repeated freezing and thawing on antimicrobial activity of MPX” value with S. aureus [3] (1 mg/mL MPX frozen and thawed 0–12 times) is given as “did not change significantly”. Moreover, the “effect of CaCl2 on antibacterial activity of MPX” value with S. aureus [3] (CaCl2 50, 100, 150, 200 and 250 mmol/mL, incubated 30 min) is on record as “no significant effect”. In the series on S. aureus [3] (KCl 50, 100, 150, 200 and 250 mmol/mL, incubated 30 min), the “effect of KCl on antibacterial activity of MPX” value is “little effect”. Also, in the series with S. aureus [3] (MgCl2 50, 100, 150, 200 and 250 mmol/mL, incubated 30 min), the “effect of MgCl2 on antibacterial activity of MPX” value is listed as “no significant effect”. The “effect of NaCl on antibacterial activity of MPX” value in the series on S. aureus [3] (NaCl 50, 100, 150, 200 and 250 mmol/mL, incubated 30 min) was “little effect”. Further, the “effect of pH on MPX activity” value with S. aureus [3] (pH 4–10 (HCl/NaOH), incubated 30 min) is on record as “basically no effect”. Also, the “effect of trypsin on antibacterial activity” value in the series with trypsin (20 μg/mL trypsin, agar diffusion, n = 3) was “significantly reduce”. The “residual antibacterial activity after trypsin” value with trypsin (100 μg/mL trypsin, equal volumes, agar diffusion vs S. aureus ATCC 25923, n = 3) was 19.6%. For the same substance, on proteinase K (40 μg/mL proteinase K, agar diffusion, n = 3), the “effect of proteinase K on antibacterial activity” value is “significantly reduced”. Besides, at proteinase K (100 μg/mL proteinase K, equal volumes, agar diffusion vs S. aureus ATCC 25923, n = 3), the “residual antibacterial activity after proteinase K” value worked out at 66.3%. Besides, in the series with S. aureus ATCC 25923 [4], the “zone of inhibition (agar diffusion)” value is “produced a zone of inhibition”. Moreover, the “number of dead bacteria in the S. aureus biofilm (confocal, SYTO 9/PI)” value in series [5] was “significantly increased”. Further, the “total protein content of bacterial culture supernatant” value in the series on S. aureus ATCC 25923 [6] is recorded as “significantly higher than that of the control group”. The “time to membrane depolarization (DiSC3-5)” value in the series on S. aureus ATCC 25923 [7] (4×MIC, DiSC3-5 1 μM, ex 622 nm / em 670 nm) was at most 10 s. In the series with S. aureus ATCC 25923 [7] (comparator AMP 50 μg/mL), the “DiSC3-5 fluorescence intensity compared with antibiotic AMP” value was “higher than that produced by the antibiotic AMP”. Also, in the series on S. aureus ATCC 25923 [8] (MPX 1×MIC, within 5 h), the “inhibition in killing curve” value was “relatively stable inhibition”. Also, in the series on S. aureus ATCC 25923 [8] (MPX 4×MIC, within 1 h, start OD600 approx. 1.0, plate counting, n = 3), the “bacteria killed (killing curve)” value came to 99.9%. Also, the “bacterial morphology (SEM/TEM)” value in the series with S. aureus ATCC 25923 [9] (MPX 1×MIC) is “shrink and leak cell contents”. Also, the “cell membrane of S. aureus (TEM)” value in the series with S. aureus ATCC 25923 [9] (MPX 4×MIC, 2 h at 37°C) was “severely damaged”. Also, the “S. aureus biofilm formation (crystal violet, OD570)” value in series [10] is listed as “significantly reduced”.
